For 18 compounds, IC50 and Activity results are on record in ChEMBL document CHEMBL6087479, “Discovery of a Potent and Selective GSPT1 Molecular Glue Degrader for the Treatment of Castration-Resistant Prostate Cancer” (J Med Chem, 2025).

One assay has as its system LNCaP. Put plainly: cells. The following applies: Homo sapiens, 96 h.
Assay [1] concerns CWR22R. Put plainly: cells. The following applies: Homo sapiens, 22Rv1, 96 h.
Description: Antiproliferative activity against human 22Rv1 cells assessed as inhibition of cell proliferation incubated for 96 hrs by CellTiter-Glo assay
A further assay relates to LNCaP C4-2B. Put plainly: cells. The following applies: Homo sapiens, 96 h.
Assay [2] relates to CWR22R. As to the kind of experiment: Antiproliferative activity against human 22Rv1 cells assessed as inhibition of cell proliferation by CellTiter-Glo assay.
For assay [3], the target named is Protein cereblon/Bromodomain-containing protein 4 (Homo sapiens) (UniProt O60885+Q96SW2). Put plainly: Molecular glue degradation activity at CRBN/BRD4 in human 22Rv1 cells at 12 to 1000 nM incubated for 6 hrs by Immunoblotting analysis. The following applies: dose 12-1000 nM. Type of assay: cell-based. (A western blot detects proteins with antibodies after separation by electrophoresis.)

Assay [4] relates to CWR22R. As to the kind of experiment: Downregulation of BRD2 protein level in human 22Rv1 cells at 500 nM incubated for 6 hrs by mass spectrometry-based label-free quantitative proteomics analysis. Format: functional, cell-based.
Assay [5] concerns CWR22R. Put plainly: Downregulation of GSPT1 protein level in human 22Rv1 cells at 500 nM incubated for 6 hrs by mass spectrometry-based label-free quantitative proteomics analysis. Type of assay: functional, cell-based.
The target in assay [6] is Protein cereblon/Eukaryotic peptide chain release factor GTP-binding subunit ERF3A (Homo sapiens) (UniProt Q96SW2+P15170). As to the kind of experiment: Protac activity at CRBN/GSPT1 in human 22Rv1 cells assessed as GSPT1 degradation at 12 to 1000 nM incubated for 6 hrs by Western blotting analysis. The following applies: dose 12-1000 nM. Format: cell-based.

Active and inactive are the calls of the source. The rule behind the calls is not given here.

Sequence of Protein cereblon/Bromodomain-containing protein 4 (Homo sapiens) (Q96SW2 whole entry, looked up, other chains not shown): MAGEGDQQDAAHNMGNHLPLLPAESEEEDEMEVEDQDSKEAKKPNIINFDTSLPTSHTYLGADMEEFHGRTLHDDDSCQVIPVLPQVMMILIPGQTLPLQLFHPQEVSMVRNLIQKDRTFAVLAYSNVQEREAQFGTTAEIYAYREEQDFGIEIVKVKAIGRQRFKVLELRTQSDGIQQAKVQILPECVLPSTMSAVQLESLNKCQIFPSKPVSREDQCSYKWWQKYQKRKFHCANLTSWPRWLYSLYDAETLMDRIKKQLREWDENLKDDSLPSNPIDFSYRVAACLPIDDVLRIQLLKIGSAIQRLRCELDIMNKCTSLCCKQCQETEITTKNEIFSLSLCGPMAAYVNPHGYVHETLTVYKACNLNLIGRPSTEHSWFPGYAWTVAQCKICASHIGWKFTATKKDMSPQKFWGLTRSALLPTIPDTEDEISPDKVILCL
Sequence of Protein cereblon/Eukaryotic peptide chain release factor GTP-binding subunit ERF3A (Homo sapiens) (P15170 whole entry, looked up): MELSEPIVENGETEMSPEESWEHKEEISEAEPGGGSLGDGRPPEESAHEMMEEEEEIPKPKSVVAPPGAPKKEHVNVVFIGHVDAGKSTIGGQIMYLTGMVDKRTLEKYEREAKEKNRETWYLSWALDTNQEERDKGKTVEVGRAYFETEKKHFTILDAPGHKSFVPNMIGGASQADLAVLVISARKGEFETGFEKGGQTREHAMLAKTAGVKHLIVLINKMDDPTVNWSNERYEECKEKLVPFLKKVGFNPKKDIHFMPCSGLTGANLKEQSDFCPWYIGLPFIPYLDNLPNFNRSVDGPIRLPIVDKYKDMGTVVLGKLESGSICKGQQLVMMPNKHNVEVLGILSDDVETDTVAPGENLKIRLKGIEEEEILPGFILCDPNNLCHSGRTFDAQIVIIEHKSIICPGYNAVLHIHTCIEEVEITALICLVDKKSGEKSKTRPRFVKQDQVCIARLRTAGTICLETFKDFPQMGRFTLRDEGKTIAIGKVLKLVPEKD
Sequence of Protein cereblon/Eukaryotic peptide chain release factor GTP-binding subunit ERF3A (Homo sapiens) (Q96SW2 whole entry, looked up): as the sequence (Q96SW2 whole entry, looked up, other chains not shown) above
Description for LNCaP C4-2B: Antiproliferative activity against human LNCaP C4-2B cells assessed as inhibition of cell proliferation incubated for 96 hrs by CellTiter-Glo assay

In general, IC50 refers to the concentration at which inhibition is half-maximal. For `COc1ccc(Br)cc1S(=O)(=O)Nc1cc2c(C)noc2cc1OCC(=O)NCCCCCCNC(=O)COc1cccc2c1C(=O)N(C1CCC(=O)NC1=O)C2=O` (stereo unspecified), the IC50 with LNCaP, in the assay with CWR22R [1] and in the assay on LNCaP C4-2B was greater than 10 µM each time.
For the compound `COc1ccc(Br)cc1S(=O)(=O)Nc1cc2c(C)noc2cc1OCC(=O)NCCCCCNc1ccc2c(c1)C(=O)N(C1CCC(=O)NC1=O)C2=O` (stereo unspecified), the IC50 in the assay on LNCaP, in the assay on CWR22R [1] and in the assay with LNCaP C4-2B was greater than 10 µM throughout.
As for `COc1ccc(Br)cc1S(=O)(=O)Nc1cc2c(C)noc2cc1OCC(=O)NCCNc1ccc2c(c1)C(=O)N(C1CCC(=O)NC1=O)C2=O` (stereo unspecified), the IC50 in the assay with LNCaP, in the assay on CWR22R [1] and in the assay with LNCaP C4-2B was greater than 10 µM throughout.
On to `COc1ccc(Br)cc1S(=O)(=O)Nc1cc2c(C)noc2cc1OCC(=O)NCCCCCNC(=O)COc1cccc2c1C(=O)N(C1CCC(=O)NC1=O)C2=O` (stereo unspecified), for which the IC50 in the assay on LNCaP, in the assay with CWR22R [1] and in the assay on LNCaP C4-2B was greater than 10 µM throughout.
For `COc1ccc(Br)cc1S(=O)(=O)Nc1cc2c(C)noc2cc1OCC(=O)NCCCCNc1ccc2c(c1)C(=O)N(C1CCC(=O)NC1=O)C2=O` (stereo unspecified), the IC50 in the assay on LNCaP, in the assay on CWR22R [1] and with LNCaP C4-2B was greater than 10 µM in each case.
As for `O=C1CCC(N2Cc3cc(CNC(=O)C(F)(F)c4ccc(Cl)cc4)ccc3C2=O)C(=O)N1` (stereo unspecified), the IC50 with CWR22R [2] was 0.016 µM.
`COc1ccc(Br)cc1S(=O)(=O)Nc1cc2c(C)noc2cc1OCC(=O)NCCCNC(=O)COc1cccc2c1C(=O)N(C1CCC(=O)NC1=O)C2=O` (stereo unspecified): the IC50 in the assay with LNCaP, in the assay with CWR22R [1] and in the assay with LNCaP C4-2B was greater than 10 µM throughout.
In the case of `Cc1sc2c(c1C)C(c1ccc(Cl)cc1)=N[C@@H](CC(=O)NCCCCNC(=O)COc1cccc3c1C(=O)N(C1CCC(=O)NC1=O)C3=O)c1nnc(C)n1-2` (stereo partly specified), the outcome (in assay [3]; with CWR22R [4]) was Active. Moreover, in the assay on CWR22R [5], the result was inactive. Moreover, the IC50 in the assay with LNCaP came to 2.25 µM; with CWR22R [1], 1.75 µM; in the assay on LNCaP C4-2B, 3.11 µM.
Take `COc1ccc(Br)cc1S(=O)(=O)Nc1cc2c(C)noc2cc1OCC(=O)NCCNC(=O)COc1cccc2c1C(=O)N(C1CCC(=O)NC1=O)C2=O` (stereo unspecified): the IC50 with LNCaP, in the assay on CWR22R [1] and in the assay on LNCaP C4-2B was greater than 10 µM throughout.
As for `COc1cc2onc(C)c2cc1NS(=O)(=O)c1cc(Br)ccc1OC`, the IC50 in the assay with LNCaP was 2.52 µM; in the assay with CWR22R [1], 1.61 µM; with LNCaP C4-2B it was 1.8 µM.
On to `COc1ccc(Br)cc1S(=O)(=O)Nc1cc2c(C)noc2cc1OCC(=O)NCCCCCCNc1cccc2c1C(=O)N(C1CCC(=O)NC1=O)C2=O` (stereo unspecified), for which the result in assay [3] was inactive. In addition, the Activity result in assay [6] is “Active; Moderate Effect Of Degradation Observed”. For the same compound, the values for the IC50 with LNCaP, with CWR22R [1] and in the assay with LNCaP C4-2B were 2.48 µM, 0.909 µM and greater than 10 µM, respectively.
On to `COc1ccc(Br)cc1S(=O)(=O)Nc1cc2c(C)noc2cc1OCC(=O)NCCCCCCNc1ccc2c(c1)C(=O)N(C1CCC(=O)NC1=O)C2=O` (stereo unspecified), for which the IC50 with LNCaP, in the assay with CWR22R [1] and in the assay with LNCaP C4-2B was greater than 10 µM in each case.
In the case of `COc1ccc(Br)cc1S(=O)(=O)Nc1cc2c(C)noc2cc1OCC(=O)NCCCNc1cccc2c1C(=O)N(C1CCC(=O)NC1=O)C2=O` (stereo unspecified), the result in assay [3] was inactive. Further, the Activity entry in assay [6] is “Active; Moderate Effect Of Degradation Observed”. Further, the IC50 worked out at 0.1 µM in the assay on LNCaP, 0.026 µM in the assay with CWR22R [1] and 0.624 µM with LNCaP C4-2B.
`COc1ccc(Br)cc1S(=O)(=O)Nc1cc2c(C)noc2cc1OCC(=O)NCCCCNc1cccc2c1C(=O)N(C1CCC(=O)NC1=O)C2=O` (stereo unspecified): the result in assay [3] was inactive. In assay [6], the Activity entry is “Active; Moderate Effect Of Degradation Observed”. For the same compound, the IC50 in the assay on LNCaP came to 0.112 µM; in the assay on CWR22R [1] it was 0.062 µM; in the assay with LNCaP C4-2B it was 1.43 µM.
Consider `COc1ccc(Br)cc1S(=O)(=O)Nc1cc2c(C)noc2cc1OCC(=O)NCCCCNC(=O)COc1cccc2c1C(=O)N(C1CCC(=O)NC1=O)C2=O` (stereo unspecified), for which the IC50 in the assay on LNCaP, with CWR22R [1] and with LNCaP C4-2B was greater than 10 µM in each case.
In the case of `COc1ccc(Br)cc1S(=O)(=O)Nc1cc2c(C)noc2cc1OCC(=O)NCCCNc1ccc2c(c1)C(=O)N(C1CCC(=O)NC1=O)C2=O` (stereo unspecified), the IC50 in the assay on LNCaP was greater than 10 µM; in the assay with CWR22R [1] it was 1.38 µM; with LNCaP C4-2B it was greater than 10 µM.
Regarding `Nc1cccc2c1C(=O)N(C1CCC(=O)NC1=O)C2=O` (stereo unspecified) [POMALIDOMIDE], the IC50 in the assay on LNCaP, in the assay with CWR22R [1] and in the assay on LNCaP C4-2B was greater than 10 µM each time.
Turning to `COc1ccc(Br)cc1S(=O)(=O)Nc1cc2c(C)noc2cc1OCC(=O)NCCNc1cccc2c1C(=O)N(C1CCC(=O)NC1=O)C2=O` (stereo unspecified), the IC50 with LNCaP, with CWR22R [1] and in the assay with LNCaP C4-2B was greater than 10 µM each time.
